Experimental data: patent publication US6162830A, “Benzenesulfonamide inhibitors of PDE-IV and their therapeutic use” (Warner-Lambert Company, priority 2000, dated 2000)

System: PDE-IV
Assay: PDE-IV Assay Procedure (SPA, 3H-cAMP, U937 lysate)
Assay type: biochemical
Settings: U937 cell lysate as PDE-IV source; 200 nM cAMP, 8 nM 3H-cAMP; pH 8.0; 2% DMSO; 1 hour at 37° C.; initially tested at 10, 3, 1, 0.3, 0.1 μM
Method: Representative compounds to be tested were diluted in 96-well plates. The compounds were either received as a 10 mM stock solution in DMSO, or as a solid which was resuspended to a concentration of 10 mM in DMSO. The compounds were initially tested at 10, 3, 1, 0.3, and 0.1 μM to calculate an IC50. In some cases, plates containing diluted compounds were frozen before being assayed. In these cases, the plates were thawed for 15 minutes at 37° C. and agitated before proceeding.
Two microliters of the diluted compounds on Rolipram were spotted into an assay plate. Ninety-eight microliters of reaction mixture containing PDE-IV enzyme were added to each well. The plate was then agitated for 2 minutes at a setting of 3.5 on a vortex and incubated for 1 hour at 37° C. The reaction was terminated with 50 μl of 0.5X SPA beads, and the reaction tray was allowed to incubate at room temperature for 20 minutes before radioactivity was measured using standard instrumentation.
The reaction mixture contained 35.2 mM Tris pH 8.0, 9.4 mM MgCl2, 4 mM β-mercapotoethanol, 200 nM cAMP, 8 nM ^3 H-cAMP, 2% DMSO 1% U937 lysate (from ABS). The reaction mixture was prepared by adding […] H2 O to 10 mL 10X Assay Buffer, 40 μL 1 μCi/μL ^3 H-cAMP, 20 μL 1 mM cAMP (cAMP stock made fresh each time), and 1 mL U937 cell lysate. 10X assay buffer was prepared by mixing 400 mM Tris Base with 400 mM Tris HCl to pH 8.0, adding to 100 mL of this Tris buffer solution, 1.017 g MgCl2, 319 μL μ-mercaptoethanol. 0.5X SPA beads was prepared by adding 500 mg beads to 56 mL H2 O for a final concentration of 8.9 mg/mL beads and 9 mM zinc sulfate.

Compound	IC50 [µM]
CCCN(C)S(=O)(=O)c1ccc(OC)c(OC)c1 [Example 12, N-Propyl-N-methyl-3,4-dimethoxybenzenesulfonamide]	0.47
C=CCN(C)S(=O)(=O)c1ccc(OCC)c(OCC)c1 [Example 17, N-(2-Propenyl)-N-methyl-3,4-diethoxybenzenesulfonamide]	0.02
C#CCN(C)S(=O)(=O)c1ccc(OCC)c(OCC)c1 [Example 10, N-(2-Propynyl)-N-methyl-3,4-diethoxybenzenesulfonamide]	0.17
C=CCN(CC=C)S(=O)(=O)c1ccc(OC)c(OC)c1 [Example 5, N,N-Di-(2-propenyl)-3,4-dimethoxybenzenesulfonamide]	0.45
C=CCN(C)S(=O)(=O)c1ccc(OC)c(OC)c1 [Example 15, N-(2-Propenyl)-N-methyl-3,4-dimethoxybenzenesulfonamide]	0.66
CCOc1ccc(S(=O)(=O)N(C)C)cc1OCC [Example 6, N,N-Dimethyl-3,4-diethoxybenzenesulfonamide]	0.28
CCCN(CCC)S(=O)(=O)c1ccc(OC)c(OC)c1 [Example 4, N,N-Dipropyl-3,4-dimethoxybenzenesulfonamide]	0.46
CC=CCN(C)S(=O)(=O)c1ccc(OC)c(OC)c1 [Example 16, N-(2-Butenyl)-N-methyl-3,4-dimethoxybenzenesulfonamide]	1.56

The remaining lines, values ahead:

IC50 [µM]	Compound
2.2	COc1ccc(S(=O)(=O)NC2CCCCC2)cc1OC [Example 9, N-(3,4-dimethoxybenzenesulfonyl)cyclohexylamine]
3.6	COc1ccc(S(=O)(=O)N2CCCCC2)cc1OC [Example 7, N-(3,4-dimethoxybenzenesulfonyl)piperidine]
0.7	CCN(C)S(=O)(=O)c1ccc(OC)c(OC)c1 [Example 11, N-Ethyl-N-methyl-3,4-dimethoxybenzenesulfonamide]
1.76	COc1ccc(S(=O)(=O)N(C)CC#N)cc1OC [Example 23, N-(methylenenitrile)-N-methyl-3,4-dimethoxybenzenesulfonamide]
3.2	COc1ccc(S(=O)(=O)N2CCCC2)cc1OC [Example 8, N-(3,4-dimethoxybenzenesulfonyl)pyrrolidine]
